Laboratory results: patent publication US20130059787A1, “METHODS OF USING HUMAN PROTEIN KINASE C DELTA VIII AS A BIOMARKER” (UNITED STATES DEPARTMENT OF VETERAN AFFAIRS, priority 2010, published 2013)

What was measured:
[1] = system: 5′ splice site II of PKCδ exon 10; experiment: pSPL3_PKCδ splicing minigene in NT2 cells, RT-PCR; format: cell-based, human; conditions: RA about 10 μM, 24 h
Experimental: (a) schematic represents PKCδ pre-mRNA exon 10 and flanking introns cloned into pSPL3 splicing vector between the SD and SA exons. The resulting minigene is referred to as pSPL3_PKCδ minigene. Arrows indicate position of primers used in RT-PCR analysis. (b) pSPL3_PKCδ minigene and pSPL3 empty vector were transfected overnight, and then the cells were treated with or without about 10 μM RA for about 24 h. Total RNA was extracted and RT-PCR performed using primers as described above. Expected products are SD-SA: constitutive splicing; SSI: usage of 5′ splice site I; SSII: usage of 5′ splice site II. (c) About 2 μg of SC35 or SF2/ASF was co-transfected along with the pSPL3_PKCδ splicing minigene. […] Graphs represent percent exon inclusion calculated as SS II/(SS II+SSI)×100 in the samples and are representative of four experiments performed separately. […]
Splicing minigenes are advantageous to identify cis-elements on the pre-mRNA involved in regulated alternative splicing. […] Since the human PKCδ splice variants used alternative 5′ splice sites as determined previously, exon 10 of PKCδ pre-mRNA along with its flanking 3′ and 5′ intronic sequences was cloned (as described under “Experimental Procedures”) in the multiple cloning site (MCS) between the splice donor (SD) and splice acceptor (SA) exons of pSPL3, a vector developed to study splicing events (schematic shown in FIG. 10a). […]

PKCδ promoter = experiment: pGlow-PKCδ promoter reporter transfected into NT2 cells; format: cell-based, human; conditions: RA treatment
Excerpt: Computational analysis of PKCδ promoter indicated putative RAREs. pGlow-PKCδ promoter (gift from Dr. Stuart H. Yuspa, NCI) was transfected into NT2 cells to determine if RA regulates transcription of the PKCδ gene via RARE on the PKCδ promoter region. […] This was verified by western blot analysis using GFP antibody to confirm up-regulation of PKCδ promoter by ATRA treatment.

CC1=C(/C=C/C(C)=C/C=C/C(C)=C/C(=O)O)C(C)(C)CCC1 [RA, all-trans-retinoic acid]
utilization of 5′ splice site II of PKCδ exon 10 in pSPL3_PKCδ minigene [1]: increased utilization
fluorescence of pGlow-PKCδ promoter compared to control samples (PKCδ promoter): four-fold increase
